{"source": "patent US10266513B2", "about": "(Pfizer Inc., priority 2012, dated 2019)"}
{"target": "human full-length BTK Kinase (Homo sapiens (Human), UniProt Q06187)", "sequence (Q06187 whole entry)": "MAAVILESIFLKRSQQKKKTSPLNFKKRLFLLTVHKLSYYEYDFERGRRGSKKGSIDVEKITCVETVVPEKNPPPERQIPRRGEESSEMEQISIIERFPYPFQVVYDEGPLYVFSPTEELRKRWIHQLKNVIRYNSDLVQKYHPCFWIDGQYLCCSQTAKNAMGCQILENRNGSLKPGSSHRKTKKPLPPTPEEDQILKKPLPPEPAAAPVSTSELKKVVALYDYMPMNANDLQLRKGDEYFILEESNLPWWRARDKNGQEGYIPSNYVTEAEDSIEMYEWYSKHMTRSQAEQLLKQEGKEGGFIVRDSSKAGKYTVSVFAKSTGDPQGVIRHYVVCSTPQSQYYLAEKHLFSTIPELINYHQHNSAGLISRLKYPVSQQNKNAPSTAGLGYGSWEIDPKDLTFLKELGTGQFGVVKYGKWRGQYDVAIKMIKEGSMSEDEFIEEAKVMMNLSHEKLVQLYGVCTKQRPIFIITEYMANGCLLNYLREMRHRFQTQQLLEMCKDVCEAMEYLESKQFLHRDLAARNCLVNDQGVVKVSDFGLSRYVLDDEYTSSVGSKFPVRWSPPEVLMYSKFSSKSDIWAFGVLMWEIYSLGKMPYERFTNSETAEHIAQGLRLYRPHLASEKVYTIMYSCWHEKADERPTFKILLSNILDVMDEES", "experiment": "Human BTK LanthaScreen Assay (TR-FRET)", "type": "biochemical", "conditions": "50 μM ATP, FAM-Srctide peptide substrate, read-out: BTK Inhibition IC50", "text": "Human BTK LanthaScreen Assay", "units": {"IC50": "nM"}}
{"smiles": "N#CN1CCCC(n2nc(-c3ccc(Oc4cc(F)c(F)cc4F)cc3)c(C(N)=O)c2N)C1", "note": "(stereo not shown) [Example 59, 5-amino-1-(1-cyanopiperidin-3-yl)-3-[4-(2,4,5-trifluorophenoxy)phenyl]-1H-pyrazole-4-carboxamide]", "IC50": 8.5}
{"smiles": "N#CN1CCCC(n2nc(-c3ccc(Oc4cc(Cl)cc(Cl)c4)cc3)c(C(N)=O)c2N)C1", "note": "(stereo not shown) [Example 60, 5-amino-1-(1-cyanopiperidin-3-yl)-3-[4-(3,5-dichlorophenoxy)phenyl]-1H-pyrazole-4-carboxamide]", "IC50": 4.8}
{"smiles": "N#CN1CCCC(n2nc(-c3ccc(Oc4ccc(F)c(F)c4F)cc3)c(C(N)=O)c2N)C1", "note": "(stereo not shown) [Example 61, 5-amino-1-(1-cyanopiperidin-3-yl)-3-[4-(2,3,4-trifluorophenoxy)phenyl]-1H-pyrazole-4-carboxamide]", "IC50": 5.1}
{"smiles": "N#CN1CCCC(n2nc(-c3ccc(Oc4ccccc4OC(F)(F)F)cc3)c(C(N)=O)c2N)C1", "note": "(stereo not shown) [Example 62, 5-amino-1-(1-cyanopiperidin-3-yl)-3-{4-[2-(trifluoromethoxy)phenoxy]phenyl}-1H-pyrazole-4-carboxamide]", "IC50": 3.3}
{"smiles": "N#CN1CCCC(n2nc(-c3ccc(Oc4c(F)cccc4Cl)cc3)c(C(N)=O)c2N)C1", "note": "(stereo not shown) [Example 63, 5-amino-3-[4-(2-chloro-6-fluoro-phenoxy)phenyl]-1-(1-cyanopiperidin-3-yl)-1H-pyrazole-4-carboxamide]", "IC50": 4.9}
{"smiles": "N#CN1CCCC(n2nc(-c3ccc(Oc4ccc(F)c(C(F)(F)F)c4)cc3)c(C(N)=O)c2N)C1", "note": "(stereo not shown) [Example 64, 5-amino-1-(1-cyanopiperidin-3-yl)-3-{4-[4-fluoro-3-(trifluoromethyl)phenoxy]phenyl}-1H-pyrazole-4-carboxamide]", "IC50": 8.7}
{"smiles": "COc1ccccc1Oc1ccc(-c2nn(C3CCCN(C#N)C3)c(N)c2C(N)=O)cc1", "note": "(stereo not shown) [Example 65, 5-amino-1-(1-cyanopiperidin-3-yl)-3-[4-(2-methoxyphenoxy)phenyl]-1H-pyrazole-4-carboxamide]", "IC50": 10.6}
{"smiles": "N#CN1CCCC(n2nc(-c3ccc(Oc4cc(F)cc(F)c4)cc3)c(C(N)=O)c2N)C1", "note": "(stereo not shown) [Example 66, 5-amino-1-(1-cyanopiperidin-3-yl)-3-[4-(3,5-difluorophenoxy)phenyl]-1H-pyrazole-4-carboxamide]", "IC50": 7.2}
{"smiles": "N#CN1CCCC(n2nc(-c3ccc(Cc4ccccc4)cc3)c(C(N)=O)c2N)C1", "note": "(stereo not shown) [Example 67]", "IC50": 2.4}
{"smiles": "Cc1cccc(Cc2ccc(-c3nn(C4CCCN(C#N)C4)c(N)c3C(N)=O)cc2)c1", "note": "(stereo not shown) [Example 68, 5-amino-1-(1-cyanopiperidin-3-yl)-3-[4-(3-methylbenzyl)phenyl]-1H-pyrazole-4-carboxamide]", "IC50": 1.9}
{"smiles": "Cc1cccc(Cc2ccc(-c3nn([C@@H]4CCCN(C#N)C4)c(N)c3C(N)=O)cc2)c1", "note": "[Example 69, (R)-5-amino-1-(1-cyanopiperidin-3-yl)-3-(4-(3-methylbenzyl)phenyl)-1H-pyrazole-4-carboxamide]", "IC50": 0.6}
{"smiles": "Cc1cccc(Cc2ccc(-c3nn([C@H]4CCCN(C#N)C4)c(N)c3C(N)=O)cc2)c1", "note": "[Example 70, (S)-5-amino-1-(1-cyanopiperidin-3-yl)-3-(4-(3-methylbenzyl)phenyl)-1H-pyrazole-4-carboxamide]", "IC50": 21.9}
{"smiles": "N#CN1CCCC(n2nc(-c3ccc(Cc4ccccc4Cl)cc3)c(C(N)=O)c2N)C1", "note": "(stereo not shown) [Example 71, 5-amino-3-(4-(2-chlorobenzyl)phenyl)-1-(1-cyanopiperidin-3-yl)-1H-pyrazole-4-carboxamide]", "IC50": 2.7}
{"smiles": "N#CN1CCC[C@@H](n2nc(-c3ccc(Cc4ccccc4Cl)cc3)c(C(N)=O)c2N)C1", "note": "[Example 72, (R)-5-amino-3-(4-(2-chlorobenzyl)phenyl)-1-(1-cyanopiperidin-3-yl)-1H-pyrazole-4-carboxamide]", "IC50": 0.54}
{"smiles": "N#CN1CCC[C@H](n2nc(-c3ccc(Cc4ccccc4Cl)cc3)c(C(N)=O)c2N)C1", "note": "[Example 73, (S)-5-amino-3-(4-(2-chlorobenzyl)phenyl)-1-(1-cyanopiperidin-3-yl)-1H-pyrazole-4-carboxamide]", "IC50": 6.1}
{"smiles": "N#CN1CCCC(n2nc(-c3ccc(Cc4ccccc4F)cc3)c(C(N)=O)c2N)C1", "note": "(stereo not shown) [Example 74, 5-amino-1-(1-cyanopiperidn-3-yl)-3-[4-(2-fluorobenzyl)phenyl]-1H-pyrazole-4-carboxamide]", "IC50": 1}
{"smiles": "N#CN1CCC[C@H](n2nc(-c3ccc(Cc4ccccc4F)cc3)c(C(N)=O)c2N)C1", "note": "[Example 76, (S)-5-amino-1-(1-cyanopiperidin-3-yl)-3-(4-(2-fluorobenzyl)phenyl)-1H-pyrazole-4-carboxamide]", "IC50": 12}
{"smiles": "N#CN1CCCC(n2nc(-c3ccc(Cc4cccc(F)c4)cc3)c(C(N)=O)c2N)C1", "note": "(stereo not shown) [Example 77, 5-amino-1-(1-cyanopiperidin-3-yl)-3-[4-(3-fluorobenzyl)phenyl]-1H-pyrazole-4-carboxamide]", "IC50": 2.3}
{"smiles": "N#CN1CCCC(n2nc(-c3ccc(Cc4ccc(F)cc4F)cc3)c(C(N)=O)c2N)C1", "note": "(stereo not shown) [Example 80, 5-amino-1-(1-cyanopiperidin-3-yl)-3-[4-(2,4-difluorobenzyl)phenyl]-1H-pyrazole-4-carboxamide]", "IC50": 15.6}
{"smiles": "N#CN1CCCC(n2nc(-c3ccc(Cc4ccc(F)c(F)c4)cc3)c(C(N)=O)c2N)C1", "note": "(stereo not shown) [Example 83, 5-amino-1-(1-cyanopiperidin-3-yl)-3-[4-(3,4-difluorobenzyl)phenyl]-1H-pyrazole-4-carboxamide]", "IC50": 15.3}
{"smiles": "N#CN1CCCC(n2nc(-c3ccc(Cc4ccc(Cl)cc4)cc3)c(C(N)=O)c2N)C1", "note": "(stereo not shown) [Example 86, 5-amino-3-[4-(4-chlorobenzyl)phenyl]-(1-cyanopiperidin-3-yl)-1H-pyrazole-4-carboxamide]", "IC50": 26.8}
{"smiles": "N#CN1CCCC(n2nc(-c3ccc(C(=O)c4ccccc4)cc3)c(C(N)=O)c2N)C1", "note": "(stereo not shown) [Example 87, 5-Amino-3-(4-benzoyl-phenyl)-1-(1-cyano)-piperidin-3-yl-1H-pyrazole-4-carboxylic acid amide]", "IC50": 1.3}
{"smiles": "N#CN1CCCC(n2nc(-c3ccc(C(O)c4ccccc4)cc3)c(C(N)=O)c2N)C1", "note": "(stereo not shown) [Example 88, 5-amino-1-(1-cyanopiperidin-3-yl)-3-{4-[hydroxy(phenyl)methyl]phenyl}-1H-pyrazole-4-carboxamide]", "IC50": 5.7}
{"smiles": "N#CN1CCCC(n2nc(-c3cccc(Oc4ccccc4)c3)c(C(N)=O)c2N)C1", "note": "(stereo not shown) [Example 89, 5-amino-1-(1-cyanopiperidin-3-yl)-3-(3-phenoxyphenyl)-1H-pyrazole-4-carboxamide]", "IC50": 7.7}
{"smiles": "N#CN1CCCC(n2nc(-c3cccc(Cc4ccc(Cl)cc4)c3)c(C(N)=O)c2N)C1", "note": "(stereo not shown) [Example 92, 5-amino-3-[3-(4-chlorobenzyl)phenyl]-1-(1-cyanopiperidin-3-yl)-1H-pyrazole-4-carboxamide]", "IC50": 73.4}
{"smiles": "N#CN1CCCC(n2nc(-c3cccc(Cc4ccc(F)cc4)c3)c(C(N)=O)c2N)C1", "note": "(stereo not shown) [Example 93, 5-amino-1-(1-cyanopiperidin-3-yl)-3-[3-(4-fluorobenzyl)phenyl]-1H-pyrazole-4-carboxamide]", "IC50": 35}
{"smiles": "N#CN1CCCC(n2nc(-c3cccc(Oc4ccc(F)cc4)c3)c(C(N)=O)c2N)C1", "note": "(stereo not shown) [Example 94, 5-Amino-1-(1-cyanopiperidin-3-yl)-3-(3-(4-fluorophenoxy)phenyl)-1H-pyrazole-4-carboxamide]", "IC50": 50.2}
{"smiles": "N#CN1CCCC(n2nc(-c3cccc(Oc4ccc(OC(F)(F)F)cc4)c3)c(C(N)=O)c2N)C1", "note": "(stereo not shown) [Example 95, 5-Amino-1-(1-cyanopiperidin-3-yl)-3-{3-[4-(trifluoromethoxy)phenoxy]phenyl}-1H-pyrazole-4-carboxamide]", "IC50": 79.2}
